The source of these data is patent US9139616B2, “Isolation, identification, and uses of antifungal compounds” (priority 2010, dated 2015).

The MIC is the lowest concentration found to suppress growth. Low readings indicate a more susceptible organism, high ones a less susceptible organism.

What all share (experiment): Microtitre 2-fold serial dilution MIC assay
Holding throughout (format): cell-based

The test system of one assay is Aspergillus niger. To be noted: A. niger; 30° C., 4 days, turbidity.
For a further assay, the system named is Candida albicans. To be noted: C. albicans; 30° C., 4 days, turbidity.
A further assay has as its system Saccharomyces cerevisiae. As to conditions: S. cerevisiae; 30° C., 4 days, turbidity. On the procedure:
Anti-fungal activity for the present compounds was determined using microtitre format. Microtitre plates (96 wells: rows A-H, columns 1-12) were filled by the following protocol to give 2-fold serial dilutions of each of Bk-1229 and Bk-1097. Samples of Bk-1229 and Bk-1097 were dissolved in 1/10-strength BHIB containing 0.1% (w/v) dimethylsulfoxide (DMSO). Aliquots (50 μL) of 1/10-strength BHIB containing 0.1 (w/v) % DMSO (pH 7.4) were added to all wells except those in column 1. The wells in column 1 received 100 μL of the solutions of Bk-1229 or Bk-1097 and 50 μL was removed and mixed with the medium in the second well. This process was repeated through well 11, at which point an aliquot (50 μL) was removed and discarded. Well 12 was the blank (positive growth) control, BHIB+DMSO only. The test microorganisms employed in this example were Saccharomyces cerevisiae, Candida albicans, and Aspergillus niger, which were obtained from the Virginia Tech Microbiology Culture Collection. Cells of S. cerevisiae and C. albicans were grown in sterile 1/10-strength Brain Heart Infusion Broth (BHIB) and incubated at 30° C. for 18 h. Cells were counted as colony forming units on 1/10-strength BHIB agar. Spore suspensions of A. niger were prepared from lawns of sporulating colonies on 1/10-strength BHIB agar. The number of spores was determined by counting spores microscopically in a Petroff-Hauser counting chamber. The resulting culture or spore suspensions were diluted to 10^5 cells or spores/mL. Following the preparation of the dilution series, 50 μL of microbial inocula (10^5/mL) were added to each well in a row. The concentration of Bk-1229 and Bk-1097 ranged from 50 to 0.05 μg/mL. After the plates were incubated at 30° C. for 4 days, measurement of minimal inhibitory concentration (MIC) results were read by comparing the turbidity (due to microbial growth) of each test well to the positive control wells. The measured MICs for each of burkholdines are summarized as follow: […]

SMILES strings stand for the structures. Converted amounts (≈) assume the structure as drawn. Numbered stars: 1 amine (or outer) side, 2 acyl side, 3 side chain; on linkers, the order of the positions; unused ones are H or OH. Bridge positions count the residues as written; N and C are the ends. Square brackets hold non-standard residues; d marks the D form. Peptide text beside a SMILES is read from it. ξ: configuration not given here. X1 = CCCCCCCCCCCC(O[C@H]1OC[C@H](O)[C@@H](O)[C@@H]1O)C(O)C(O)CC(CC(=O)[*:1])N[*:2]; X2 = CCCCCCCCCCCC(O)C(O)C(O)CC(CC(=O)[*:2])N[*:1]; Asn(3S-OH) = NC(=O)[C@@H](O)[C@H](N)C(=O)O; ξTyr(βOH) = NC(C(=O)O)C(O)c1ccc(O)cc1

Consider `CCCCCCCCCCCC(O)C(O)C(O)CC1CC(=O)N[C@H](CO)C(=O)NC(C(O)c2ccc(O)cc2)C(=O)N[C@H](CC(N)=O)C(=O)NCC(=O)N[C@@H](CC(N)=O)C(=O)N[C@@H](CO)C(=O)N[C@@H]([C@H](O)C(N)=O)C(=O)N1` (stereo partly drawn) [Bk-1097 (2), burkholdine 1097] (cyclo(GNS[Asn(3S-OH)][X2][dS][ξTyr(βOH)][dN])), for which the MIC is 1.6 µg/mL (≈ 1.46 µM) against Aspergillus niger, 12.5 µg/mL (≈ 11.4 µM) with Candida albicans and 1.6 µg/mL (≈ 1.46 µM) against Saccharomyces cerevisiae.

As to `C[C@@H]1[C@H](O)[C@@H](C)/C=C/C=C/C=C/C=C/C=C/C=C/C=C/[C@H](O[C@@H]2O[C@H](C)[C@@H](O)[C@H](N)[C@@H]2O)C[C@@H]2O[C@](O)(C[C@@H](O)C[C@@H](O)[C@H](O)CC[C@@H](O)C[C@@H](O)CC(=O)O[C@H]1C)C[C@H](O)[C@H]2C(=O)O` [Amphetericin B, reference compound], the MIC in the assay on Aspergillus niger, against Candida albicans and against Saccharomyces cerevisiae was 25 µg/mL (≈ 27.1 µM) throughout.

Turning to `CCCCCCCCCCCC(O[C@H]1OC[C@H](O)[C@@H](O)[C@@H]1O)C(O)C(O)CC1CC(=O)N[C@H](CO)C(=O)NC(C(O)c2ccc(O)cc2)C(=O)N[C@H](CC(N)=O)C(=O)NCC(=O)N[C@@H](CC(N)=O)C(=O)N[C@@H](CO)C(=O)N[C@@H]([C@H](O)C(N)=O)C(=O)N1` (stereo partly drawn) [Bk-1229 (1), burkholdine 1229] ([dS][ξTyr(βOH)][dN]GNS[Asn(3S-OH)]; linker N-C via X1), the MIC against Aspergillus niger is 12.5 µg/mL (≈ 10.2 µM); against Candida albicans, 12.5 µg/mL (≈ 10.2 µM); against Saccharomyces cerevisiae it was 0.4 µg/mL (≈ 0.325 µM).
